From patent US12558342B2, “2-[2-({12,12-dimethyl-4-oxo-6-phenyl-3,11-dioxatricyclo[8.4.0.0,2,7]tetradeca-1,5,7,9-tetraen-8-yl}oxy)acetamido]benzamide and derivatives as inhibitor of clock:bmal1 interaction for the treatment of circadian rhythm diseases and disorders” (KOC UNIVERSITESI, priority 2019, dated 2026)

Key:
[1] = target: T1, CLOCK (Homo sapiens, UniProt O15516); experiment: Cytosol-nuclear fractionation of U2OS cells, CLOCK; assay type: cell-based; settings: 20 μM, two days
T1 sequence (O15516 1-846): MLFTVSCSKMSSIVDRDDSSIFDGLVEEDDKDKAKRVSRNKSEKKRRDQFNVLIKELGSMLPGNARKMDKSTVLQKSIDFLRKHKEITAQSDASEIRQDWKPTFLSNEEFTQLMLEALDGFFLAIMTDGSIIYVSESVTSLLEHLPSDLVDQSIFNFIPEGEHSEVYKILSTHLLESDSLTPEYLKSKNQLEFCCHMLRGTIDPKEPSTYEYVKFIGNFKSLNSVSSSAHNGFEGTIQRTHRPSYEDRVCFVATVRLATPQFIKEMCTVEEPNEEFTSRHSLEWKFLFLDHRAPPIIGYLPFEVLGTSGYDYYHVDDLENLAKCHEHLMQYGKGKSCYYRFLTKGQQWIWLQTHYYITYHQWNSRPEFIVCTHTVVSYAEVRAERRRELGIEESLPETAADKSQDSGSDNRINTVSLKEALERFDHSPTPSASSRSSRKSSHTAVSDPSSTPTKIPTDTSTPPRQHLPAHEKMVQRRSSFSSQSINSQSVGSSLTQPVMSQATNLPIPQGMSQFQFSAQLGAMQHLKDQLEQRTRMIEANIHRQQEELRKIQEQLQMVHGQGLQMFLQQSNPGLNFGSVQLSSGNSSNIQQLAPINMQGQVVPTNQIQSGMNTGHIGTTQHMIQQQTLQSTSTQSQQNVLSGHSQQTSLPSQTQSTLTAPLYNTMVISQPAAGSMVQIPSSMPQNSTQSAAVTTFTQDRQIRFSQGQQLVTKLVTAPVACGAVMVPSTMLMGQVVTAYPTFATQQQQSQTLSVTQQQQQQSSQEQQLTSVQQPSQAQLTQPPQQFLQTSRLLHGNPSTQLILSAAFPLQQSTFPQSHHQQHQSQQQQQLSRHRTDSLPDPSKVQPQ
Experimental: U2 OS cells treated with 20 μM CLK8 and 0.5% DMSO were used for fractionation analysis. The 4×10^5 was suspended in 500 ul cytosolic lysis buffer (10 mM HEPES pH 7,9, 10 mM KCl, 0.1 mM EDTA, 0.05% NP40 with protease inhibitors) and incubated on ice for 10 minutes. The lysate was centrifuged for 3 minutes at 3000 rpm at 4° C. The resulting supernatant was centrifuged one more time and supernatant collected as cytosolic fraction. On the other hand, the resulting pellet from lysate centrifugation was suspended in nuclear lysis buffer (20 mM HEPES pH 7.9, 0.4 M NaCl, 1 mM EDTA, 10% glycerol with protease inhibitors) and sonicated 2 times 10 seconds with 60% power. After centrifuge at 15 000 g for 5 minutes at 4° C., supernatant was collected as nuclear fraction. Collected fractions were used for Western Blot analysis. Fractionation efficiency was checked with Western Blot by using tubulin (Sigma T9026) as cytosolic marker and Histone-H3 (abcam ab1791) as nuclear marker.

[2] = test system: Per1::dluc NIH 3T3 cells; experiment: Real-time monitoring of circadian rhythm, Per1::dluc NIH 3T3; assay type: cell-based, mouse
Experimental: We used Bmal1::dluc U2-OS and Per1::dluc NIH 3T3, and continuously monitored the bioluminescence to record circadian rhythm. This experiment was performed in 96-well plates (triplicates) and 35-mm dishes (duplicates) in the secondary screen and detailed characterization steps respectively. Briefly, cells were seeded to reach confluency. A day after, the medium was replaced with DMEM containing 0.1 μM Dexamethasone to synchronize cells. […] The 96-well plates were covered and bioluminescence was monitored by Synergy H1 Hybrid Multi-Mode Reader every 32 minutes. […] Bioluminescence was recorded every 10 minutes for 4-6 days. […] The first day's data was excluded from the analysis due to transient perturbations of luminescence after the medium change.
We used Bmal1::dluc U2-OS and Per1::dluc NIH 3T3, and continuously monitored the bioluminescence to record circadian rhythm. […] The 96-well plates were covered and bioluminescence was monitored by Synergy H1 Hybrid Multi-Mode Reader every 32 minutes. […] Bioluminescence was recorded every 10 minutes for 4-6 days. […] The first day's data was excluded from the analysis due to transient perturbations of luminescence after the medium change.

level of CLOCK in the nucleus [1]: reduced
Compound: CC1(C)CCc2c(cc(OCC(=O)Nc3ccccc3C(N)=O)c3c(-c4ccccc4)cc(=O)oc23)O1 [CLK8, 2-[2-({12,12-dimethyl-4-oxo-6-phenyl-3,11-dioxatricyclo [8.4.0.0,2,7]tetradeca-1,5,7,9-tetraen-8-yl}oxy)acetamido] benzamide]
period of circadian rhythm [2]: no period changes
amplitude of circadian rhythm ([2]; dose dependent): enhances the amplitude
